The values below come from paper PMC6421522, “Designing Dual Inhibitors of Anaplastic Lymphoma Kinase (ALK) and Bromodomain-4 (BRD4) by Tuning Kinase Selectivity” (Journal of Medicinal Chemistry, 2019).

Usually IC50 stands for the concentration needed to halve the response being measured. Higher therefore signals weaker potency.

One experiment deals with T1, PLK-1 (Homo sapiens, UniProt P53350).
T1 construct: purchased Thermo Fisher Scientific (SelectScreen service)
Nature of the experiment: PLK-1 Z-LYTE activity assay (SelectScreen). Format: biochemical. The settings on record: for fold decrease of PLK-1 activity/potency: relative to starting compound BI-2536.

Another experiment deals with T2, ALK^F1174L (Homo sapiens, UniProt Q9UM73, F1174L).
T2 construct: purchased Carna Biosciences
Nature of the experiment: LanthaScreen Eu kinase binding assay. For orientation: In TR-FRET formats the signal depends on donor and acceptor labels being close together.

The target in a further experiment is ALK WT (Homo sapiens, UniProt Q9UM73). Put plainly: Biochemical ALK WT IC50. It is filed as binding. Conditions: geometric mean.
A further experiment deals with HeLa cells. Nature of the experiment: Mitotic arrest and mitotic markers in HeLa cells (Western blot). Format: cell-based. The settings on record: HeLa cells, Western blot. How it is done:
Protein extracts of cells were prepared by lysis in radioimmunoprecipitation assay buffer (Sigma) supplemented with protease inhibitors (complete protease inhibitor cocktail, Roche). Protein extracts (25 μg) were separated by sodium dodecyl sulfate-polyacrylamide gel electrophoresis and transferred onto poly(vinylidene difluoride) membranes using the Trans-Blot Turbo transfer system (BioRad). After blocking with 5% bovine serum albumin in PBS with 0.1% Tween-20 for 30 min, the membrane was incubated with primary antibodies for 1 h at room temperature. Horseradish peroxidase-linked secondary antibodies were incubated 30 min at room temperature followed by enhanced chemiluminescence (ECL) detection (ECL Western blot substrate, Pierce).
Primary antibodies were obtained from the following sources: PLK-1 (05-844) and phosphohistone H3 (Ser10) (05806) from Millipore; pPlk1-T210 (5472) from Cell Signaling; pPlk1-S137 (21738) from Abcam; and cyclin B1 (GNS1) and β-actin (A2228) from Sigma-Aldrich served as loading control.
On the technique in general: A western blot detects proteins with antibodies after separation by electrophoresis.

T1 sequence (P53350 whole entry): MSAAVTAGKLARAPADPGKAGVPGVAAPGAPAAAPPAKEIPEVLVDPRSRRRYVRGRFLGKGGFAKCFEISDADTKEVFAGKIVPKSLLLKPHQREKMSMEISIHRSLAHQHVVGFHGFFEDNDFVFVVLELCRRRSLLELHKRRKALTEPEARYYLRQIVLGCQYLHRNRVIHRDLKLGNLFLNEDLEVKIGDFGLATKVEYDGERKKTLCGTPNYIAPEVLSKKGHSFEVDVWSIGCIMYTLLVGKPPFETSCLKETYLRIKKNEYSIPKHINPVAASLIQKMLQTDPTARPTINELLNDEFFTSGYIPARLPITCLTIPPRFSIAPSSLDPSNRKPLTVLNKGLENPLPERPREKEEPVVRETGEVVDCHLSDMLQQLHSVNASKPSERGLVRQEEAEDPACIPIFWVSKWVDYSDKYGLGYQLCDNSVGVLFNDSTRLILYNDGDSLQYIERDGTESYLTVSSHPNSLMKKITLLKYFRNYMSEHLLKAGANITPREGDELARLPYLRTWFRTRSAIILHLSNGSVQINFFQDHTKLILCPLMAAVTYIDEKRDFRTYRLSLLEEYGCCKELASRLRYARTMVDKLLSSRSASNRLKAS
ALK WT, sequence (Q9UM73 19-1620): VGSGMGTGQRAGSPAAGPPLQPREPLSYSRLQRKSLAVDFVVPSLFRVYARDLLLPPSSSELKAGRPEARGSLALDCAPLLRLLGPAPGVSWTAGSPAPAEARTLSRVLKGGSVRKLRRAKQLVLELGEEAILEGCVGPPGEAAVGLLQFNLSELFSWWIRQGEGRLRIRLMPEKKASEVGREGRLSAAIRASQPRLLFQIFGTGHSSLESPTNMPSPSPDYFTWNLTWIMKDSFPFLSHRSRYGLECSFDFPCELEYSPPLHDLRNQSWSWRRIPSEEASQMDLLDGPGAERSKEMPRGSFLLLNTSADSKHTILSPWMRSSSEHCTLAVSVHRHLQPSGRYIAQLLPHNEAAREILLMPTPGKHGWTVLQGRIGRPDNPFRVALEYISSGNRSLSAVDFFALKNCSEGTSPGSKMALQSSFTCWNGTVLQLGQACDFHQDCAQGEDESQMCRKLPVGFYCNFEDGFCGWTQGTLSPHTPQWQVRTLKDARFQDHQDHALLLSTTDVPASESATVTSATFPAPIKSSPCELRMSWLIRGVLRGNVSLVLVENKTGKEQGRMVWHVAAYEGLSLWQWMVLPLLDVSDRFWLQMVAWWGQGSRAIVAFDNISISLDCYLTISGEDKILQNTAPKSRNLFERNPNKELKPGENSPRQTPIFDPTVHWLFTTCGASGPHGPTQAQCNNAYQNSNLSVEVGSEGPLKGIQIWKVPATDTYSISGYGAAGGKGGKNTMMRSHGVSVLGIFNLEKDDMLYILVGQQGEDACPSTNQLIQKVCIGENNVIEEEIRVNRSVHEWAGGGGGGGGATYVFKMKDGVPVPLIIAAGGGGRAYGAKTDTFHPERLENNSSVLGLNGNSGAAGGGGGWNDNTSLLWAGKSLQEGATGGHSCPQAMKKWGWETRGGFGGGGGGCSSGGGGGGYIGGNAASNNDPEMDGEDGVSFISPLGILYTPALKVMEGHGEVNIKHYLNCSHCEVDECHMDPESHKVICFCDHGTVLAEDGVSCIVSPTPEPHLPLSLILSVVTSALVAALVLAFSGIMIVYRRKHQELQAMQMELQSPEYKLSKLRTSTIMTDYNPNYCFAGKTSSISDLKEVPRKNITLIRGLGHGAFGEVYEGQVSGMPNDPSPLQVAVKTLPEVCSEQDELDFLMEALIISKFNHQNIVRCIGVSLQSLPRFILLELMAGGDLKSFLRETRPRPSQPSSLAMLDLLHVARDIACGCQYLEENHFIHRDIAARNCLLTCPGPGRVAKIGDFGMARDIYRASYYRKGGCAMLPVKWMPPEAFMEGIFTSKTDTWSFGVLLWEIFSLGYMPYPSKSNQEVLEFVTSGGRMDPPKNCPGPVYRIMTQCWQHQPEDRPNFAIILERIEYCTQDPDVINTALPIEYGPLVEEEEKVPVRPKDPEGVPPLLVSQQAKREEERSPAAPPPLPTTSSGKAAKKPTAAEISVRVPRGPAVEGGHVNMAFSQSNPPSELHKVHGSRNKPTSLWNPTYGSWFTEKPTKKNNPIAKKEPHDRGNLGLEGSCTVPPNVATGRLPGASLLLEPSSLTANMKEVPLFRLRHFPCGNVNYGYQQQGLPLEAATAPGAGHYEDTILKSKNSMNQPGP
T2 sequence (Q9UM73 19-1620 F1174L): as the sequence (Q9UM73 19-1620) above, with F1156L counted along it

`CC[C@@H]1C(=O)N(C)c2cnc(Nc3ccc(C4CCN(C)CC4)cc3OC)nc2N1C1CCCC1` [16a, (R)-8-Cyclopentyl-7-ethyl-2-((2-methoxy-4-(1-methylpiperidin-4-yl)phenyl)amino)-5-methyl-7,8-dihydropteridin-6(5H)-one]: the “fold decrease of PLK-1 activity/potency” value at PLK-1 is reported as “four-fold”. For `CCOc1cc(C(=O)NC2CCN(C)CC2)ccc1Nc1ncc2c(n1)N(C1CCCC1)CC(=O)N2C` [16e, 4-((8-Cyclopentyl-5-methyl-6-oxo-5,6,7,8-tetrahydropteridin-2-yl)amino)-3-ethoxy-N-(1-methylpiperidin-4-yl)benzamide], the “fold reduction of ALK^F1174L potency” value at ALK^F1174L (on removal of the (R)-Et group) stood at 3 fold.

Consider `CCOc1cc(C(=O)NC2CCN(C)CC2)ccc1Nc1ncc2c(n1)N(Cc1cccc(Br)c1)[C@H](CC)C(=O)N2C` [16f, (R)-4-((8-(3-Bromobenzyl)-7-ethyl-5-methyl-6-oxo-5,6,7,8-tetrahydropteridin-2-yl)amino)-3-ethoxy-N-(1-methylpiperidin-4-yl)benzamide], for which the “fold decrease of PLK-1 activity/potency” value on PLK-1 is listed as 30–40 fold. With `CCOc1cc(C(=O)NC2CCN(C)CC2)ccc1Nc1ncc2c(n1)N(Cc1ccccc1)[C@H](CC)C(=O)N2C` [16g, (R)-4-((8-Benzyl-7-ethyl-5-methyl-6-oxo-5,6,7,8-tetrahydropteridin-2-yl)amino)-3-ethoxy-N-(1-methylpiperidin-4-yl)benzamide], on PLK-1, the “fold decrease of PLK-1 activity/potency” value is listed as 30–40 fold. As for `CCOc1cc(C2CCN(C)CC2)ccc1Nc1ncc2c(n1)N(Cc1cccc(Br)c1)[C@H](CC)C(=O)N2C` [16h, (R)-8-(3-Bromobenzyl)-2-((2-ethoxy-4-(1-methylpiperidin-4-yl)phenyl)amino)-7-ethyl-5-methyl-7,8-dihydropteridin-6(5H)-one], on PLK-1, the “fold decrease of PLK-1 activity/potency” value is given as 100–200 fold. Take `CCOc1cc(C2CCN(C)CC2)ccc1Nc1ncc2c(n1)N(Cc1ccccc1)[C@H](CC)C(=O)N2C` [16i, (R)-8-Benzyl-2-((2-ethoxy-4-(1-methylpiperidin-4-yl)phenyl)amino)-7-ethyl-5-methyl-7,8-dihydropteridin-6(5H)-one]: on ALK^F1174L, the “fold increase in ALK^F1174L potency” value is 2 fold. Also, on ALK WT, it took 120 ± 11 nM to reach half-maximal inhibition (IC50). Moreover, on PLK-1, the “fold decrease of PLK-1 activity/potency” value was 100–200 fold.

Molecule `CCOc1cc(C2CCN(C)CC2)ccc1Nc1ncc2c(n1)N(Cc1sccc1C)[C@H](CC)C(=O)N2C` [16j, (R)-2-((2-Ethoxy-4-(1-methylpiperidin-4-yl)phenyl)amino)-7-ethyl-5-methyl-8-((3-methylthiophen-2-yl)methyl)-7,8-dihydropteridin-6(5H)-one] returned an IC50 against ALK WT of 89 ± 4 nM. `CCOc1cc(C2CCN(C)CC2)ccc1Nc1ncc2c(n1)N(Cc1cccc(C#N)c1)[C@H](CC)C(=O)N2C` [23b, (R)-3-((2-((2-Ethoxy-4-(1-methylpiperidin-4-yl)phenyl)amino)-7-ethyl-5-methyl-6-oxo-6,7-dihydropteridin-8(5H)-yl)methyl)benzonitrile]: the “ALK selectivity over PLK-1” value on PLK-1 (biochemical IC50s ALK^F1174L vs PLK-1) is 5 fold. Also, the “fold decrease of PLK-1 activity/potency” value at PLK-1 was > 700 fold. Turning to `CC[C@@H]1C(=O)N(C)c2cnc(Nc3ccc(C(=O)NC4CCN(C)CC4)cc3OC)nc2N1C1CCCC1` [BI-2536, reference compound], in the experiment on HeLa cells, the “concentration inducing mitotic arrest and increased PLK-1, cyclin B1, phosphohistone H3” value is listed as ≤ 50 nM.
